Earlier results in PubChem BioAssay AID1259409 (Chemical Carcinogenesis Research Information System (CCRIS), 2018).

Test system: rodent chemically induced tumor inhibition, incidence and multiplicity
Test: CCRIS tumor inhibitor studies
Details: Route [Inhibitor]: ORAL, Species: HAMSTER, Promoter: NONE USED

CCNC(=O)/C=C(C)/C=C/C=C(C)/C=C/C1=C(C)CCCC1(C)C
tumour outcome (control, treated, inhibition, significance) (Carcinogen: N-NITROBIS(2-OXOPROPYL)AMINE, 60559-38-4, Dose [Inhibitor]: 0.5 OR 1.0 MMOL/KG DIET DAILY STARTING 1 WK AFTER CARCINOGEN TREATMENT AND CONTINUING THROUGH THE END OF THE STUDY (STUD, Strain/Sex: SYRIAN/MALE, Target Tissue: Type of Lesion: ND: TOTAL TUMOR, Dose [Carcinogen]: 40 MG/KG BW SINGLE ONCE): 20/24 (83%), 37/40 (90%), -8%, not significant | tumour outcome (control, treated, inhibition, significance) (Carcinogen: N-NITROBIS(2-OXOPROPYL)AMINE, 60559-38-4, Dose [Inhibitor]: 0.5 OR 1.0 MMOL/KG DIET DAILY STARTING 1 WK AFTER CARCINOGEN TREATMENT AND CONTINUING THROUGH THE END OF THE STUDY (STUD, Strain/Sex: SYRIAN/MALE, Target Tissue: Type of Lesion: PANCREAS: DUCTULAR ADENOMA, Dose [Carcinogen]: 10 MG/KG BW ONCE): 3/22 (14%), 16/30 (53%), -279%, p<0.05 | tumour outcome (control, treated, inhibition, significance) (Carcinogen: N-NITROBIS(2-OXOPROPYL)AMINE, 60559-38-4, Dose [Inhibitor]: 0.5 OR 1.0 MMOL/KG DIET DAILY STARTING 1 WK AFTER CARCINOGEN TREATMENT AND CONTINUING THROUGH THE END OF THE STUDY (STUD, Strain/Sex: SYRIAN/MALE, Target Tissue: Type of Lesion: PANCREAS: DUCTULAR ADENOMA, Dose [Carcinogen]: 40 MG/KG BW ONCE): 8/24 (33%), 33/40 (82%), -148%, not significant | tumour outcome (control, treated, inhibition, significance) (Carcinogen: N-NITROBIS(2-OXOPROPYL)AMINE, 60559-38-4, Dose [Inhibitor]: 0.5 OR 1.0 MMOL/KG DIET DAILY STARTING 1 WK AFTER CARCINOGEN TREATMENT AND CONTINUING THROUGH THE END OF THE STUDY (STUD, Strain/Sex: SYRIAN/MALE, Target Tissue: Type of Lesion: PANCREAS: DUCTULAR CARCINOMA, Dose [Carcinogen]: 10 MG/KG BW ONCE): 4/22 (18%), 10/30 (33%), -83%, not significant | tumour outcome (control, treated, inhibition, significance) (Carcinogen: N-NITROBIS(2-OXOPROPYL)AMINE, 60559-38-4, Dose [Inhibitor]: 0.5 OR 1.0 MMOL/KG DIET DAILY STARTING 1 WK AFTER CARCINOGEN TREATMENT AND CONTINUING THROUGH THE END OF THE STUDY (STUD, Strain/Sex: SYRIAN/MALE, Target Tissue: Type of Lesion: PANCREAS: DUCTULAR CARCINOMA, Dose [Carcinogen]: 40 MG/KG BW ONCE): 5/24 (21%), 20/40 (50%), -138%, not significant | tumour outcome (control, treated, inhibition, significance) (Carcinogen: N-NITROBIS(2-OXOPROPYL)AMINE, 60559-38-4, Dose [Inhibitor]: 0.5 OR 1.0 MMOL/KG IN DIET STARTING 1 WK AFTER CARCINOGEN DOSE FOR DURATION OF STUDY (STUDY DURATION: 40 WK), Strain/Sex: SYRIAN/FEMALE, Target Tissue: Type of Lesion: LIVER: BENIGN TUMOR, Dose [Carcinogen]: 40 MG/KG BW SINGLE INJECTION): 4/20 (20%), 17/37 (46%), -130%, not significant | tumour outcome (control, treated, inhibition, significance) (Carcinogen: N-NITROBIS(2-OXOPROPYL)AMINE, 60559-38-4, Dose [Inhibitor]: 0.5 OR 1.0 MMOL/KG IN DIET STARTING 1 WK AFTER CARCINOGEN DOSE FOR DURATION OF STUDY (STUDY DURATION: 40 WK), Strain/Sex: SYRIAN/MALE, Target Tissue: Type of Lesion: LIVER: BENIGN TUMOR, Dose [Carcinogen]: 40 MG/KG BW SINGLE INJECTION): 5/24 (21%), 25/41 (62%), -195%, p<0.05 | tumour outcome (control, treated, inhibition, significance) (Carcinogen: N-NITROBIS(2-OXOPROPYL)AMINE, 60559-38-4, Dose [Inhibitor]: 0.5 OR 1.0 MMOL/KG/D IN DIET STARTING 1 WK AFTER CARCINOGEN TREATMENT AND CONTINUING THROUGH THE END OF THE STUDY (STUDY, Strain/Sex: SYRIAN/FEMALE, Target Tissue: Type of Lesion: PANCREAS: DUCTULAR ADENOMA, Dose [Carcinogen]: 10 MG/KG BW ONCE): 5/23 (23%), 13/25 (52%), -126%, not significant | tumour outcome (control, treated, inhibition, significance) (Carcinogen: N-NITROBIS(2-OXOPROPYL)AMINE, 60559-38-4, Dose [Inhibitor]: 0.5 OR 1.0 MMOL/KG/D IN DIET STARTING 1 WK AFTER CARCINOGEN TREATMENT AND CONTINUING THROUGH THE END OF THE STUDY (STUDY, Strain/Sex: SYRIAN/FEMALE, Target Tissue: Type of Lesion: PANCREAS: DUCTULAR ADENOMA, Dose [Carcinogen]: 40 MG/KG BW ONCE): 12/20 (60%), 27/37 (73%), -22%, not significant | tumour outcome (control, treated, inhibition, significance) (Carcinogen: N-NITROBIS(2-OXOPROPYL)AMINE, 60559-38-4, Dose [Inhibitor]: 0.5 OR 1.0 MMOL/KG/D IN DIET STARTING 1 WK AFTER CARCINOGEN TREATMENT AND CONTINUING THROUGH THE END OF THE STUDY (STUDY, Strain/Sex: SYRIAN/FEMALE, Target Tissue: Type of Lesion: PANCREAS: DUCTULAR CARCINOMA, Dose [Carcinogen]: 10 MG/KG BW ONCE): 6/23 (27%), 6/25 (24%), 11%, not significant | tumour outcome (control, treated, inhibition, significance) (Carcinogen: N-NITROBIS(2-OXOPROPYL)AMINE, 60559-38-4, Dose [Inhibitor]: 0.5 OR 1.0 MMOL/KG/D IN DIET STARTING 1 WK AFTER CARCINOGEN TREATMENT AND CONTINUING THROUGH THE END OF THE STUDY (STUDY, Strain/Sex: SYRIAN/MALE, Target Tissue: Type of Lesion: PANCREAS: DUCTULAR ADENOMA, Dose [Carcinogen]: 10 MG/KG BW ONCE): 3/22 (14%), 16/30 (53%), -279%, p<0.05 | tumour outcome (control, treated, inhibition, significance) (Carcinogen: N-NITROBIS(2-OXOPROPYL)AMINE, 60559-38-4, Dose [Inhibitor]: 0.5 OR 1.0 MMOL/KG/D IN DIET STARTING 1 WK AFTER CARCINOGEN TREATMENT AND CONTINUING THROUGH THE END OF THE STUDY (STUDY, Strain/Sex: SYRIAN/MALE, Target Tissue: Type of Lesion: PANCREAS: DUCTULAR ADENOMA, Dose [Carcinogen]: 40 MG/KG BW ONCE): 8/24 (33%), 33/40 (82%), -148%, not significant | tumour outcome (control, treated, inhibition, significance) (Carcinogen: N-NITROBIS(2-OXOPROPYL)AMINE, 60559-38-4, Dose [Inhibitor]: 0.5 OR 1.0 MMOL/KG/D IN DIET STARTING 1 WK AFTER CARCINOGEN TREATMENT AND CONTINUING THROUGH THE END OF THE STUDY (STUDY, Strain/Sex: SYRIAN/MALE, Target Tissue: Type of Lesion: PANCREAS: DUCTULAR CARCINOMA, Dose [Carcinogen]: 10 MG/KG BW ONCE): 4/22 (18%), 10/30 (33%), -83%, not significant | tumour outcome (control, treated, inhibition, significance) (Carcinogen: N-NITROBIS(2-OXOPROPYL)AMINE, 60559-38-4, Dose [Inhibitor]: 0.5 OR 1.0 MMOL/KG/D IN DIET STARTING 1 WK AFTER CARCINOGEN TREATMENT AND CONTINUING THROUGH THE END OF THE STUDY (STUDY, Strain/Sex: SYRIAN/MALE, Target Tissue: Type of Lesion: PANCREAS: DUCTULAR CARCINOMA, Dose [Carcinogen]: 40 MG/KG BW ONCE): 5/24 (21%), 20/40 (50%), -138%, not significant | tumour outcome (control, treated, inhibition, significance) (Carcinogen: N-NITROBIS(2-OXOPROPYL)AMINE, 60599-38-4, Dose [Inhibitor]: 0.5 OR 1 MMOL/KG DIET DAILY STARTING 1 WK AFTER CARCINOGEN TREATMENT AND CONTINUING THROUGH THE END OF THE STUDY (STUDY, Strain/Sex: SYRIAN/FEMALE, Target Tissue: Type of Lesion: PANCREAS: DUCTULAR CARCINOMA, Dose [Carcinogen]: 40 MG/KG BW ONCE): 6/20 (30%), 16/37 (43%), -43%, not significant | tumour outcome (control, treated, inhibition, significance) (Carcinogen: N-NITROBIS(2-OXOPROPYL)AMINE, 60599-38-4, Dose [Inhibitor]: 0.5 OR 1.0 MMOL/KG/D IN DIET STARTING 1 WK AFTER CARCINOGEN TREATMENT AND CONTINUING THROUGH THE END OF THE STUDY (STUDY, Strain/Sex: SYRIAN/FEMALE, Target Tissue: Type of Lesion: PANCREAS: DUCTULAR CARCINOMA, Dose [Carcinogen]: 40 MG/KG BW ONCE): 6/20 (30%), 16/37 (43%), -43%, not significant | tumour outcome (control, treated, inhibition, significance) (Carcinogen: N-NITROSOBIS(2-OXYPROPYL)AMINE, 60599-38-4, Dose [Inhibitor]: 0.05, 0.1 OR 0.2 MILLIMOLAR/KG DIET FOR 32 WK STARTING 1 WK AFTER THE CARCINOGEN DOSE (STUDY DURATION: 33 WK), Strain/Sex: SYRIAN/FEMALE, Target Tissue: Type of Lesion: COMMON DUCT: ADENOMA, Dose [Carcinogen]: 40 MG/KG ONCE): 4/10 (40%), 7/26 (32%), 20%, not significant
